According to article PMC7216235, “The Ionophoric Activity of a Pro-Apoptotic VEGF165 Fragment on HUVEC Cells” (International Journal of Molecular Sciences, 2020):

Experiments:
[1] = tested on: HUVEC cells; assay: Cell viability assay (MTS); assay type: cell-based, human; conditions: for reduction of cell viability at the higher dose tested: time at which it starts (in words): 50 µM peptide, 24 h and 48 h
Description: HUVECs were maintained in EGM®-2 BulletKit® medium. Cells were grown to 80% confluence at 37 °C in a humid atmosphere in the presence of 5% CO2. Passages 2–5 were used. Cells were starved for 12 h, using endothelial cell basal medium (EBM®-2 basal medium, 0,2% Fetal Bovine Serum) before all experiments.
The MTS assay (CellTiter 96® AQueous One Solution, Promega) was performed to compare the viability of cells treated with different concentrations of peptides (VEGF73-101, VEGF84-101 VEGFQ79G, and VEGFI83G) and CuSO4, and their complexes. We considered two different growth conditions for our treatments to be examined, to which we refer in this paper as proliferation conditions or survival conditions. Proliferation condition: Cells (3 replicates) were seeded in 96-well plates at a density of 1.5 × 10^3 cell/well, treated in EGM®-2 BulletKit®, 2% Fetal Bovine Serum (FBS) without VEGF supplementation. Survival condition: Cells (3 replicates) were seeded in 96-well plates at a density of 3 × 10^3 cell/well in an EBM®-2 basal medium of 0.2% FBS without supplements and VEGF. MTS assay was used following 24 h or 48 h of treatments according to the manufacturer’s instructions. The required copper and peptides were pre-mixed together in water in order to allow peptide/copper complexes formations before their addition to the cells. When the experiments were performed in the presence of bathocuproine disulfonic acid disodium salt (BCS), in proliferation condition, 50 µM of the copper chelator was added during the treatment for 24 h. The results were reported as the percentage of viable cells, with respect to the control set, to 100%.

[2] = RP-HPLC retention time on PepMap C18 column (UHPLC-ESI MS) as a measure of peptide hydrophobicity; assay type: physicochemical; conditions: used by the paper as measure of relative hydrophobicity, amidated-acetylated peptides, PepMap C18 column 300Å (75 μm × 150 mm), linear gradient 2% to 99% B (20% water–80% acetonitrile) with 0.1% FA over 40 min, 0.3 µL/min, 40 °C
Description: Here, we tested peptide lipophilic features by high-performance liquid chromatography using a reverse phase RP18 column.
To evaluate the relative hydrophobicity of the peptides, the retention times of amidated-acetylated peptides were recorded on a PepMap C18 column 300Å (75 μm × 150 mm) using a linear gradient from 2% to 99% of B (20% water–80% acetonitrile) containing 0.1% FA over 40 min, at a flow rate of 0.3 µL/min. The injection volume was 5 μL for analysis. The Q-exactive mass spectrometer was equipped with nano electrospray ion source (Nano EASY-Spray). The thermostatted column compartment was at 40 °C. The optimized parameters of mass spectrometry were illustrated as below: spray voltage, + 3.0 kV; capillary temperature, 250 °C; full MS; resolution, 70,000; automatic gain control (AGC) target, 3.0 × 10^6; maximum injection time (IT), 200 ms; scan range, 150–2000m/z. Nitrogen was used for spray stabilization. All data collected in profile mode were acquired and processed using Thermo Xcalibur 3.0 software.

[3] = tested on: HUVEC cells; assay: Annexin V-FITC/PI staining, flow cytometry; assay type: cell-based, human; conditions: 72 h; for induction of apoptosis (in words): 5 µM peptide, EBM-2 0.2% FBS, PI/Annexin V, two experiments in triplicate
Description: Annexin V/ PI is a commonly used approach for studying apoptotic cells. Propidium iodide (PI) is widely used in conjunction with Annexin V to determine if cells are viable, apoptotic, or necrotic through differences in plasma membrane integrity and permeability. The fluorescence of AnnexinV-FITC/PI assay was read using flow cytometry. HUVEC cells were seeded on a 12-well plate at a density of 2.5 ×10^4 and grown for 48 h before treatments. During the last 24 h cells were starved in the same EBM-2 basal medium containing 0.2% fetal bovine serum without EC (endothelial cell) supplements. Cells were then exposed to 5 µM peptide for 72 h. When required, 10 µM CuSO4 was used in combination with peptides. Five hours of incubation in the presence of 1 µM STS (staurosporine) was used as a positive control for cell death. Cells were harvested and stained with Annexin V-FITC (Fluorescein isothiocyanate) and propidium iodide using an annexin V-FITC apoptosis detection kit (Life technologies, Monza (MB), Italy), following the manufacturer’s instructions. Briefly, cells were pelleted and resuspended in 800 µL PBS buffer containing 20 µL of annexin V, 20 µL of propidium iodide, and PI (Annexin V/Dead Cell Apoptosis Kit (Invitrogen), and kept for 10 min at 25 °C in the dark. Samples were analyzed within 1 h by flow cytometry using a CyFlow® ML (Sysmex Partec Milan-Italy). The fluorescent scatter plots indicated three types of cell populations: viable (Annexin V-FITC−/PI−), dead (Annexin V-FITC + /PI+), and apoptotic (Annexin V-FITC + /PI−). Quadrant analysis (FlowMax software -Partec) was performed on the gated fluorescent scatter plot to examine the percentage of live, dead, and apoptotic cell populations. Experiments were repeated twice in triplicate.
Sample were analyzed, 2 × 10^4 cells per sample, using a CyFlow® ML flow cytometer (Partec) system equipped with three laser sources and 10 optical parameters with dedicated filter setting and a high numerical aperture microscope objective (50× NA 0.82) for the detection of different scatter and fluorescence signals. […]

[4] = Model membrane permeabilization assay: release of 6-carboxyfluorescein from dye-filled LUVs; conditions: 10 µM peptide, 200 µM LUVs 5:3:2 POPC/POPE/POPS, 10 mM phosphate buffer, 100 mM NaCl, pH 7.4, 25 °C, after 800 min, fluorescence λex 494/λem 520 nm, average of three experiments
Description: Figure 2 Dye release (membrane leakage) from model membranes induced by VEGF73-101, VEGF84-101, VEGFQ79G, and VEGFI83G. Kinetics of dye release from 200 µM LUVs of 5:3:2 POPC/POPE/POPS in the presence of 10 µM of each peptide. All experiments were performed in 10 mM phosphate buffer, 100 mM NaCl, pH 7.4, at 25 °C. Results are the average of three experiments.
Figure 7 Peptide induced release of 6-carboxyfluorescein from 200 μM POPC:POPE:POPS LUVs measured in the presence of (a) 10 μM peptides/Cu and (b) 10 μM VEGF73-101 (magenta curve) and its 1:1 Cu(II) complex (black curve), 10 μM VEGFI83G (green curve) and its 1:1 Cu(II) complex (blue curve). Experiments were in triplicate at 25 °C in 10 mM phosphate buffer, 100 mM NaCl, pH 7.4.
Model membranes were prepared according to a procedure described elsewhere. To mimic the lipid composition of endothelial cell membranes, we used POPC:POPE:POPS (5:3:2 molar ratio) lipid mixture. Multilamellar vesicles (MLVs) were obtained by vortexing a chloroform lipid solution under a gentle nitrogen flow. Next, the lipid solution was dried overnight in a vacuum at room temperature in a round-bottomed flask to remove all the residual solvent. […] Pore formation in the lipid bilayer was monitored by measuring the increase in fluorescence emission intensity due to dye dilution (dequenching) in the buffer upon membrane leakage. […]

[5] = survival conditions (EBM2, 0.2% FBS without growth factors), MTS

Molecule | RP-HPLC retention time tR [2] [min] | cell viability of Cu(II) alone (in words) ([1]; 24 h, same concentrations as in the complexes, survival and proliferation conditions, MTS (Figure 9)) | reduction of cell viability at the higher dose tested: time at which it starts (in words) [1, 5] | induction of apoptosis (in words) [3] | dye release (membrane leakage) [4] [%] | cell viability (in words) ([1]; 5 µM peptide, 48 h, survival conditions (EBM2, 0.2% FBS without growth factors), MTS) | effect of the copper chelator BCS on the peptide's effect on cell viability (in words) ([1]; BCS 50 µM, 24 h, proliferation conditions, no added copper, MTS (Figure S10)) | live cells in the presence of Cu(II) (in words) ([3]; peptide 5 µM with copper(II) 10 µM, PI/Annexin V (Figure 10))
O=S(=O)([O-])[O-].[Cu+2] [Cu(II), copper sulfate, reference compound] | – | had no effects | – | – | – | – | – | –
Ac-ESTNIMQIMRGKPHQGQHIGEMSFLQHNK-NH2 [VEGFI83G, VEGF73-101 with point mutation in position 83 (Ile-Gly)] | 20.4 | – | starting at 24 h | – | – | – | – | –

Second part, led by results:

RP-HPLC retention time tR [2] [min] | Molecule | cell viability of Cu(II) alone (in words) ([1]; 24 h, same concentrations as in the complexes, survival and proliferation conditions, MTS (Figure 9)) | reduction of cell viability at the higher dose tested: time at which it starts (in words) [1, 5] | induction of apoptosis (in words) [3] | dye release (membrane leakage) [4] [%] | cell viability (in words) ([1]; 5 µM peptide, 48 h, survival conditions (EBM2, 0.2% FBS without growth factors), MTS) | effect of the copper chelator BCS on the peptide's effect on cell viability (in words) ([1]; BCS 50 µM, 24 h, proliferation conditions, no added copper, MTS (Figure S10)) | live cells in the presence of Cu(II) (in words) ([3]; peptide 5 µM with copper(II) 10 µM, PI/Annexin V (Figure 10))
21.4 | Ac-ESTNIMGIMRIKPHQGQHIGEMSFLQHNK-NH2 [VEGFQ79G, VEGF73-101 with point mutation in position 79 (Gln-Gly)] | – | starting at 48 h | – | – | – | – | –
18.2 | Ac-KPHQGQHIGEMSFLQHNK-NH2 [VEGF84-101] | – | all peptides (except VEGF84-101) were able to reduce cell viability | Neither the shorter sequence (VEGF84-101), nor the single mutated peptides induced apoptosis | – | – | – | –
21.7 | Ac-ESNITMQIMRIKPHQGQHIGEMSFLQHNK-NH2 [VEGF73-101] | – | starting at 24 h | able to induce apoptosis | ~5 | significantly decrease cell viability | not significantly altered by BCS | caused a decrease in live cells
